Results as given in patent publication US9783536B2, “Nitrogen-containing heterocyclic compound or salt thereof” (FUJIFILM Corporation, priority 2013, dated 2017).
Structures can show the parent of a compound that is named as a salt. Where two headings read alike, the source gives them in different places.

How the values were obtained:
Format in all cases: biochemical
[1] = target: T1, GST fusion human ERK2 protein (Homo sapiens, UniProt P28482); assay: ERK2 enzyme assay (1); conditions: read-out: ERK2 enzyme inhibitory activity (1)
T1 construct: purchased Carna Biosciences, Inc; host or cells: E. coli expression system
Method: In an ERK2 enzyme assay, GLUTATHIONE S-TRANSFERASE (GST) FUSION HUMAN ERK2 PROTEIN (manufactured by Carna Biosciences, Inc.), which was produced by using an E. coli expression system, was used.
12 μL of a reaction liquid (2.5 nmol/L ERK2, 100 mmol/L Hepes, 10 mmol/L MgCl2, 1.5 mmol/L DTT, 0.003% Brij35, pH 7.5) including ERK2 protein and a test compound having a predetermined concentration was allowed to stand at room temperature for 15 minutes. Then, 3 μL of a mixture liquid of FL-PEPTIDE8 (5-FAM-IPTSPITTTYFFFKKK-COOH) (manufactured by Caliper Life Sciences), which is substrate peptide, and ATP (manufactured by Sigma-Aldrich Co. LLC.) was added thereto such that the final concentrations thereof became 4.25 μmol/L and 43.1 μmol/L, respectively, and an enzyme reaction was performed by allowing to stand at 25° C. for 120 minutes.
After the reaction, the enzyme reaction was stopped by adding 30 μL of a reaction stopper liquid (100 mmol/L HEPES, 11.2 mmol/L EDTA, 5.6% Brij35, pH 7.5) including a 0.5% COATING REAGENT 8 (trade name, manufactured by Perkin Elmer Inc.) thereto. Then, phosphorylated peptide and non-phosphorylated peptide were separated using LABCHIP EZ READER (trade name, manufactured by Caliper Life Sciences), and the porportion of the phosphorylated peptide was quantified.
The inhibitory activities of the compounds were evaluated using IC50 (50% inhibitory concentration). The IC50 was calculated using XLFIT (trade name, manufactured by ID Business Solutions).

human PI3Kα protein = target: T2, human PI3Kα protein (Homo sapiens, UniProt P42336); assay: PI3Kα enzyme assay (ADP-Glo); conditions: read-out: PI3Kα enzyme inhibitory activity
T2 construct: purchased Carna Biosciences, Inc; host or cells: baculovirus expression system
Method in brief: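 Biotinylated human PI3Kα (baculovirus-expressed, 4.5 nmol/L) pre-incubated 15 min with compound in Tris-HCl pH 7.5, MgCl2, BSA; reaction 60 min at 25° C with 50 μmol/L PIP2 and 100 μmol/L ATP final. ADP quantified by ADP-Glo luminescence; IC50 calculated.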

[2] = target: T1, GST fusion human ERK2 protein; assay: ERK2 enzyme assay (2); conditions: read-out: ERK2 enzyme inhibitory activity (2)
Method in brief: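 GST-tagged human ERK2 expressed in E. coli (1.25 nmol/L) was preincubated with compound for 15 min at room temperature in pH 7.5 Hepes buffer with MgCl2, DTT and Brij35. Reaction with FL-Peptide 8 (final 4.25 μmol/L) and ATP (final 1 mmol/L) ran 120 min at 25 °C; EDTA stopped it, and phosphorylated peptide was quantified by mobility-shift separation to derive IC50.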

[3] = 2.5 nmol/L ERK2, ATP 43.1 μmol/L
[4] = 4.5 nmol/L PI3Kα, PIP2 50 μmol/L, ATP 100 μmol/L

T2 sequence (P42336 whole entry): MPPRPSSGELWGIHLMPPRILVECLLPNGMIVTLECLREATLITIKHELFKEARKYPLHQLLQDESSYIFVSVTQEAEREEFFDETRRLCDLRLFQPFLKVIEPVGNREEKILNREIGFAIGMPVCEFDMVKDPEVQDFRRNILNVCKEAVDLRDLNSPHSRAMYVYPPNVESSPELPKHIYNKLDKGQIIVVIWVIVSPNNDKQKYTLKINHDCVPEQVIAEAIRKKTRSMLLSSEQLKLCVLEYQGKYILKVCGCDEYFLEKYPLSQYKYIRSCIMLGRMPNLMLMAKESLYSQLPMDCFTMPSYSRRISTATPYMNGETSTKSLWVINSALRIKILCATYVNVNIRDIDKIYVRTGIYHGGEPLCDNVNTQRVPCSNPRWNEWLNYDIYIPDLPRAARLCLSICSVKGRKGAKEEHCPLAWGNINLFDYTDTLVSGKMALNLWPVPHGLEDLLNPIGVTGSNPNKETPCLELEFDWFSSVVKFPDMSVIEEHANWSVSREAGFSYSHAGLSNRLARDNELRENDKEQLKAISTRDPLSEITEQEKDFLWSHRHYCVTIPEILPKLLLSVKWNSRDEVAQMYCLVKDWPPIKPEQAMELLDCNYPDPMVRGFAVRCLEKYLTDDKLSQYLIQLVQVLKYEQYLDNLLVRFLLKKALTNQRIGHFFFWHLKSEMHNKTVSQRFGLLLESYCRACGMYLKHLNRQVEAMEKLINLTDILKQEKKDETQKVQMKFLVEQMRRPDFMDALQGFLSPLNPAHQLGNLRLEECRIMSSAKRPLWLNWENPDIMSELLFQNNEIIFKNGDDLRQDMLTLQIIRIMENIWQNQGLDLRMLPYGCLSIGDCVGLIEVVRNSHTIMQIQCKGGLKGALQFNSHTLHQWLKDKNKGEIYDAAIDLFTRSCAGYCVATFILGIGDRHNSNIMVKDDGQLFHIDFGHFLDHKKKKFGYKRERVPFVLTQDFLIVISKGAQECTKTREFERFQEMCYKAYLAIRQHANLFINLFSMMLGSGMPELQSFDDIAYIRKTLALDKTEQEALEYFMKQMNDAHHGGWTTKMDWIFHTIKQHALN
T2 sequence (P27986 whole entry partner): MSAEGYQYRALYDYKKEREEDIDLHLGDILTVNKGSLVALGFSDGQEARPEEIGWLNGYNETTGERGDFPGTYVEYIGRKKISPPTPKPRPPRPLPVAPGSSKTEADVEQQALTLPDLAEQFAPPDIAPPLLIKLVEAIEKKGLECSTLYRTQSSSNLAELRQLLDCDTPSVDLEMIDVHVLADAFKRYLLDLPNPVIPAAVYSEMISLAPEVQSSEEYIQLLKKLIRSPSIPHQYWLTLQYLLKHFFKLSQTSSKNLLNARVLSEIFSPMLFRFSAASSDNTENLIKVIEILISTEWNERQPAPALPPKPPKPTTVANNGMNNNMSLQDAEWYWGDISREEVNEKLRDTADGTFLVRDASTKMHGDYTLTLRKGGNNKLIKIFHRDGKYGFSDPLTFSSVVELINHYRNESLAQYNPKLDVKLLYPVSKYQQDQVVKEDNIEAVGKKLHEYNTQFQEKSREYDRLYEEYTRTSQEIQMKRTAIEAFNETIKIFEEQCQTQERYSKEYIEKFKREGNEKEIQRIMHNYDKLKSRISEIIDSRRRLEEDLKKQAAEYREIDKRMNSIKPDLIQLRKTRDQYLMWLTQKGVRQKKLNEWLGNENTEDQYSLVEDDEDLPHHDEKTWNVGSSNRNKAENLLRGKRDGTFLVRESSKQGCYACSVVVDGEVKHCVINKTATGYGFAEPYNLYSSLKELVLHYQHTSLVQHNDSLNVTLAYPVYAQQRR
T1 sequence (P28482 whole entry, the tested form may be a part): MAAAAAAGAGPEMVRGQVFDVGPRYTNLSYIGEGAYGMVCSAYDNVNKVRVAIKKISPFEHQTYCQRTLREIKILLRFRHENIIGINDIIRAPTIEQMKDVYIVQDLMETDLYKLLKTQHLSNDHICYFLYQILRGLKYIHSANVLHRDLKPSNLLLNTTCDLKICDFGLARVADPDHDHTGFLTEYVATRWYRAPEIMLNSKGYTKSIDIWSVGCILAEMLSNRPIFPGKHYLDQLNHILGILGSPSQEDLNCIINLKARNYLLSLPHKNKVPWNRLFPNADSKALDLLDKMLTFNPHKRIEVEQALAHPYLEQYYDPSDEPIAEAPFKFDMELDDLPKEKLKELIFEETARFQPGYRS

| SMILES | IC50 [1, 3] | IC50 ([1]; ERK2 enzyme assay (1)) | also measured |
| --- | --- | --- | --- |
| c1nnc(Nc2ccc3ncc(-c4cnn(CCN5CCOCC5)c4)cc3n2)s1 [Example 0002] | < 1000 nM | – | IC50 (human PI3Kα protein; [4]): < 1000 nM |
| c1nnc(Nc2ccc3ncc(N4CCOCC4)cc3n2)s1 [Example 0003, N-(7-morpholino-1,5-naphthyridin-2-yl)-1,3,4-thiadiazole-2-amine] | < 1000 nM | – | IC50 (human PI3Kα protein; [4]): 1000 to 10000 nM |
| CC(C)c1nnc(Nc2ccc3nccc(Nc4ccncc4)c3n2)s1 [Example 0004, N^2-(5-isopropyl-1,3,4-thiadiazol-2-yl)-N^8-(pyridin-4-yl)-1,5-naphthyridine-2,8-diamine] | < 1000 nM | – | IC50 (human PI3Kα protein; [4]): < 1000 nM |
| CC(C)c1nnc(Nc2ccc3nccc(Nc4cccnc4)c3n2)s1 [Example 0006] | < 1000 nM | – | IC50 (human PI3Kα protein; [4]): < 1000 nM |
| CC(C)c1nnc(Nc2ccc3nccc(Nc4ccccc4)c3n2)s1 [Example 0009] | 1000 to 10000 nM | – | IC50 (human PI3Kα protein; [4]): 1000 to 10000 nM |
| CC(C)c1nnc(Nc2ccc3ncc(-c4cnn(C)c4)nc3n2)s1 [Example 0010, 5-isopropyl-N-(3-(1-methyl-1H-pyrazol-4-yl)pyrido[2,3-b]pyrazine-6-yl)-1,3,4-thiadiazole-2-amineformate] | < 1000 nM | – | IC50 (human PI3Kα protein; [4]): 1000 to 10000 nM |
| Cc1nnc(Nc2ccc3ncc(-c4cnn(C)c4)cc3n2)o1 [Example 0031, 5-methyl-N-(7-(1-methyl-1H-pyrazol-4-yl)-1,5-naphthyridin-2-yl)-1,3,4-oxadiazole-2-amine hydrochloride] | 1000 to 10000 nM | – | – |
| Brc1cnc2ccc(Nc3nnc(C4CCCC4)s3)nc2c1 [Example 0039, N-(7-bromo-1,5-naphthyridin-2-yl)-5-cyclopentyl-1,3,4-thiadiazole-2-amine] | < 1000 nM | – | – |
| C#Cc1cnc2ccc(Nc3nnc(C4CCCC4)s3)nc2c1 [Example 0042, 5-cyclopentyl-N-(7-ethynyl-1,5-naphthyridin-2-yl)-1,3,4-thiadiazole-2-amine hydrochloride] | 10000 to 50000 nM | – | – |
| Cn1cc(-c2cnc3ccc(Nc4nnc(C(F)(F)F)s4)nc3c2)cn1 [Example 0164] | < 1000 nM | – | – |
| Cn1cc(-c2cnc3ccc(Nc4nnc(C(N)=O)s4)nc3c2)cn1 [Example 0168, 5-((7-(1-Methyl-1H-pyrazol-4-yl)-1,5-naphthyridin-2-yl)amino)-1,3,4-thiadiazole-2-carboxamide] | < 1000 nM | – | – |
| CSc1nnc(Nc2ccc3ncc(-c4cnn(C)c4)cc3n2)s1 [Example 0174, N-(7-(1-methyl-1H-pyrazol-4-yl)-1,5-naphthyridin-2-yl)-5-(methylthio)-1,3,4-thiadiazole-2-amine] | < 1000 nM | – | – |
| Cn1cc(-c2cnc3ccc(Nc4nnc(C5CCC5)s4)nc3c2)cn1 [Example 0198, 5-Cyclobutyl-N-(7-(1-methyl-1H-pyrazol-4-yl)-1,5-naphthyridin-2-yl)-1,3,4-thiadiazole-2-amine] | < 1000 nM | – | – |
| COc1ccc(-c2cnc3ccc(Nc4nnc(C5CCCC5)s4)nc3c2)cc1OC [Example 0203] | – | < 1000 nM | – |
| COc1ccccc1-c1cnc2ccc(Nc3nnc(C4CCCC4)s3)nc2c1 [Example 0211] | – | < 1000 nM | – |
| COc1ccc(-c2cnc3ccc(Nc4nnc(C5CCCC5)s4)nc3c2)cc1 [Example 0213] | – | < 1000 nM | – |
| CCOC(=O)c1nnc(Nc2ccc3ncc(-c4cnn(C)c4)cc3n2)s1 [Example 0230] | – | < 1000 nM | – |
| COc1cccc(-c2ccnc3ccc(Nc4nnc(C(C)C)s4)nc23)c1 [Example 0271] | – | < 1000 nM | – |
| CC(C)(C)OC(=O)N1CC=C(c2cnc3ccc(Nc4nnc(C5CCCC5)s4)nc3c2)CC1 [Example 0328, tert-butyl 4-(6-((5-cyclopentyl-1,3,4-thiadiazol-2-yl)amino)-1,5-naphthyridin-3-yl)-5,6-dihydropyridine-1(2H)-carboxylate] | – | < 1000 nM | – |
| FC(F)(F)CN1CCC(n2cc(-c3cnc4ccc(Nc5nnc(C6CCCC6)s5)nc4c3)cn2)CC1 [Example 0340, 5-cyclopentyl-N-(7-(1-(1-(2,2,2-trifluoroethyl)piperidin-4-yl)-1H-pyrazol-4-yl)-1,5-naphthyridin-2-yl)-1,3,4-thiadiazole-2-amine] | – | < 1000 nM | – |
| CC(C)c1cnnc(Nc2ccc3ncc(-c4cnn(C)c4)c(Cl)c3n2)c1 [Example 0952, 8-Chloro-N-(5-isopropylpyridazin-3-yl)-7-(1-methyl-1H-pyrazol-4-yl)-1,5-naphthyridine-2-amine] | – | – | IC50 [2]: < 1000 nM; IC50 (human PI3Kα protein): < 1000 nM |
| CC(C)c1cnnc(Nc2ccc3ncc(-c4cnn(C)c4)c(-c4ccncc4)c3n2)c1 [Example 0953, N-(5-isopropylpyridazin-3-yl)-7-(1-methyl-1H-pyrazol-4-yl)-8-(pyridin-4-yl)-1,5-naphthyridine-2-amine] | – | – | IC50 [2]: < 1000 nM; IC50 (human PI3Kα protein): < 1000 nM |
| CC(C)c1cnnc(Nc2ccc3ncc(-c4cnn(C)c4)c(-c4cccnc4)c3n2)c1 [Example 0954, N-(5-isopropylpyridazin-3-yl)-7-(1-methyl-1H-pyrazol-4-yl)-8-(pyridin-3-yl)-1,5-naphthyridine-2-amine] | – | – | IC50 [2]: < 1000 nM; IC50 (human PI3Kα protein): < 1000 nM |
| CC(C)c1cnnc(Nc2ccc3ncc(-c4cnn(C)c4)c(N4CCOCC4)c3n2)c1 [Example 0955, N-(5-isopropylpyridazin-3-yl)-7-(1-methyl-1H-pyrazol-4-yl)-8-morpholino-1,5-naphthyridine-2-amine] | – | – | IC50 [2]: < 1000 nM; IC50 (human PI3Kα protein): < 1000 nM |

Further lines, with some results ahead:

| IC50 [1, 3] | IC50 ([1]; ERK2 enzyme assay (1)) | SMILES | also measured |
| --- | --- | --- | --- |
| < 1000 nM | – | CC(C)c1nnc(Nc2ccc3nccc(Nc4ccncn4)c3n2)s1 [Example 0007] | IC50 (human PI3Kα protein; [4]): < 1000 nM |
| 1000 to 10000 nM | – | CC(C)c1nnc(Nc2ccc3nccc(Nc4ccnnc4)c3n2)s1 [Example 0008] | IC50 (human PI3Kα protein; [4]): < 1000 nM |
| 1000 to 10000 nM | – | COc1ccccc1Nc1ccnc2ccc(Nc3nnc(C(C)C)s3)nc12 [Example 0011] | IC50 (human PI3Kα protein; [4]): < 1000 nM |
| < 1000 nM | – | Cn1cc(-c2cnc3ccc(Nc4nnc(-c5ccccc5)s4)nc3c2)cn1 [Example 0028] | – |
| 1000 to 10000 nM | – | c1cncc(Oc2cnc3ccc(Nc4nnc(C5CCCC5)s4)nc3c2)c1 [Example 0044, 5-cyclopentyl-N-(7-((pyridin-3-yl)oxy)-1,5-naphthyridin-2-yl)-1,3,4-thiadiazole-2-amine hydrochloride] | – |
| 1000 to 10000 nM | – | FC(F)(F)CN1CCN(c2cnc3ccc(Nc4nnc(C5CCCC5)s4)nc3c2)CC1 [Example 0049] | – |
| < 1000 nM | – | c1cn(-c2cc(Nc3cnc4ccc(Nc5nnc(C6CCCC6)s5)nc4c3)ccn2)nn1 [Example 0080] | – |
| 1000 to 10000 nM | – | COc1ccc(Nc2ccc3ncc(-c4cnn(C)c4)cc3n2)nn1 [Example 0149] | – |
| – | < 1000 nM | COc1cc(-c2cnc3ccc(Nc4nnc(C5CCCC5)s4)nc3c2)cc(OC)c1OC [Example 0204] | – |
| – | < 1000 nM | COc1cccc(-c2cnc3ccc(Nc4nnc(C5CCCC5)s4)nc3c2)c1 [Example 0212] | – |
| – | < 1000 nM | Cc1noc(C)c1-c1cnc2ccc(Nc3nnc(C4CCCC4)s3)nc2c1 [Example 0216] | – |
| – | < 1000 nM | c1ccc(-c2cnc3ccc(Nc4nnc(C5CCCC5)s4)nc3c2)cc1 [Example 0218, 5-Cyclopentyl-N-(7-phenyl-1,5-naphthyridin-2-yl)-1,3,4-thiadiazole-2-amine] | – |
| – | 1000 to 10000 nM | CC(C)(C)OC(=O)N1CCC(c2cnc3ccc(Nc4nnc(C5CCCC5)s4)nc3c2)CC1 [Example 0331, tert-butyl 4-(6-((5-cyclopentyl-1,3,4-thiadiazol-2-yl)amino)-1,5-naphthyridin-3-yl)piperidine-1-carboxylate] | – |
| – | < 1000 nM | CC(C)c1cnnc(Nc2ccc3ncc(-c4ccccc4)cc3n2)c1 [Example 0408] | – |
